The values that follow come from publication PMC8095338 (Neuro-oncology Advances, 2021).

Where two headings read alike, the source gives them in different places.

In test [1] the test system is ERK phosphorylation (p-ERK) in PBMCs. Briefly: Blood PD: p-ERK in ex vivo PMA-stimulated PBMCs (capillary western). Further details: species or system minipig. The conditions noted are these: Sus scrofa, PBMC, all minipigs (WT and NF1), 2 to 5 h after single oral 7.3 mg/kg. Here is the method: WT (n = 8) and NF1 (n = 8) minipigs received a single human equivalent oral dose of 450 mg (7.3 mg/kg).
PD analysis in blood was performed as described in a previous study, with some modifications.[13] […] Samples were stimulated with phorbol 12-myristate 13-acetate (PMA) (200 nM) or phosphate-buffered saline for 10 min at 37°C within 1 h of being drawn. Red blood cells were removed using standard ammonium-chloride-potassium (ACK) lysis. Peripheral blood mononuclear cells (PBMCs) were snap-frozen as dry pellets and stored at −80°C until analysis. Protein lysates from PBMCs were prepared as described in a previous study.[13] For tissues, protein lysates were prepared by transferring ~[…] of snap frozen tissue to a 1.7-mL microfuge tube containing radioimmunoprecipitation lysis buffer with protease and phosphatase inhibitors. The samples were then homogenized using a rotor-stator homogenizer for 2–4 cycles of 20 s and centrifuged for 10 min at 4°C. Concentrations were measured using the Pierce BCA Protein assay kit (Thermo #23227), according to the manufacturer’s instructions. […] Peaks of the appropriate molecular weight (42/44 kilodaltons) were detected in the resulting electropherograms and chemiluminescent signal was quantified by calculating the area under the peaks. The relative intensity of p-ERK to total ERK was then calculated as a ratio (p-ERK/ERK). […]

Test [2] deals with ERK phosphorylation (p-ERK). Kind of test: Tissue PD: p-ERK/ERK by capillary western (Wes). Type of test: in vivo, minipig. The conditions noted are these: for inhibition at 7.3 mg/kg: Sus scrofa, po; for p-ERK Inhibition: ND = Not detected. Here is the method:
(§1) WT (n = 8) and NF1 (n = 8) minipigs received a single human equivalent oral dose of 450 mg (7.3 mg/kg). Untreated WT (n = 4) and NF1 (n = 4) minipigs were also enrolled as controls. All animals were euthanized 2 h after drug administration. Tissue samples were collected from each animal at the same approximate locations and divided for analysis.
PD analysis in blood was performed as described in a previous study, with some modifications.[13] […] Samples were stimulated with phorbol 12-myristate 13-acetate (PMA) (200 nM) or phosphate-buffered saline for 10 min at 37°C within 1 h of being drawn. Red blood cells were removed using standard ammonium-chloride-potassium (ACK) lysis. Peripheral blood mononuclear cells (PBMCs) were snap-frozen as dry pellets and stored at −80°C until analysis. Protein lysates from PBMCs were prepared as described in a previous study.[13] For tissues, protein lysates were prepared by transferring ~[…] of snap frozen tissue to a 1.7-mL microfuge tube containing radioimmunoprecipitation lysis buffer with protease and phosphatase inhibitors. The samples were then homogenized using a rotor-stator homogenizer for 2–4 cycles of 20 s and centrifuged for 10 min at 4°C. Concentrations were measured using the Pierce BCA Protein assay kit (Thermo #23227), according to the manufacturer’s instructions. A capillary western blot assay was performed on a Wes system (ProteinSimple 004–600) according to the manufacturer’s instructions using a 12–230 kDa Separation Module (ProteinSimple SM-W004) and Anti-Rabbit Detection Module (ProteinSimple DM-001). Lysates were loaded at 1 mg/mL and instrument default settings were used. Primary antibodies against Phospho-p44/42 ERK1/2 (p-ERK) (Cell Signaling Technologies #4370S) and p44/42 ERK1/2 (ERK) (Cell Signaling Technologies #4695S) were used at 1:100 dilution. Peaks of the appropriate molecular weight (42/44 kilodaltons) were detected in the resulting electropherograms and chemiluminescent signal was quantified by calculating the area under the peaks. The relative intensity of p-ERK to total ERK was then calculated as a ratio (p-ERK/ERK). To discriminate low p-ERK signals from background, the peak signal-to-noise (S/N) ratio given by the software was ≥10, and the peak height/baseline ratio was ≥3.[27]

In test [3] the test system is DUSP6 and FOS. Briefly: Transcript biomarkers of MEK inhibition in tissues (RT-PCR). The test is classed as in vivo, minipig. To be noted: skin, sciatic nerve, optic nerve and cerebral cortex of all treated minipigs, 2 h after single oral 7.3 mg/kg. Here is the method:
as §1
For RNA profiling, tissues were homogenized using ceramic homogenizers (Agilent 5982–9311) and a Beadblaster 24 (Benchmark D2400) for 3 cycles of 30 s each. RNA was extracted from all tissues using the RNeasy Mini kit (QIAGEN 74104) and RNA concentration and quality was measured by NanoDrop (Thermo). Analysis of transcript biomarkers of MEK inhibition was performed using the Fluidigm platform by Reverse Transcription, preamplification with pooled primers and Real Time-PCR on the Juno and BioMark using the following pig TaqMan primers (DUSP6-Ss06941845_m1; FOS -Ss03390402_m1; normalized to the average of pig housekeeping genes (B2M/Ss03391154_m1; HPRT1/Ss03388274_m1; PPIA/Ss03394782_g1; RPL13A/Ss03376908_u1; UBC/Ss03374343_g1, TFRC/Ss03391240_m1). Data were then normalized to the average of the control untreated group from matching WT or NF1 background (Log2 fold change, -ddCt).

In general, inhibition refers to the drop in the measured response relative to a control, in per cent. Consider `Cn1cnc2c(F)c(Nc3ccc(Br)cc3Cl)c(C(=O)NOCCO)cc21` [selumetinib], for which the inhibition at 7.3 mg/kg in test [1] (read-out: maximal inhibition of p-ERK in PBMCs) is not above 90%; in test [1] (read-out: mean inhibition of p-ERK in PBMCs), 60%; in test [2] (2 h, NF1 minipigs, cerebral cortex, 2 h after single oral 7.3 mg/kg, vs untreated controls, change not significant, read-out: p-ERK Inhibition), 71%; in test [2] (2 h, NF1 minipigs, optic nerve, 2 h after single oral 7.3 mg/kg, vs untreated controls, read-out: p-ERK Inhibition), 60%; in test [2] (2 h, NF1 minipigs, sciatic nerve, 2 h after single oral 7.3 mg/kg, vs untreated controls, read-out: p-ERK Inhibition), 60%; in test [2] (2 h, WT minipigs, sciatic nerve, 2 h after single oral 7.3 mg/kg, vs untreated controls, read-out: p-ERK Inhibition), 67%. In addition, the inhibition at 7.3 mg/kg is 64% in test [2] (2 h, all minipigs (WT and NF1), 2 h after single oral 7.3 mg/kg, read-out: mean inhibition of p-ERK in sciatic nerve); 95% in test [2] (2 h, all minipigs (WT and NF1), 2 h after single oral 7.3 mg/kg, read-out: mean inhibition of p-ERK in skin). In addition, the “p-ERK Inhibition” value in test [2] (WT minipigs, cerebral cortex (subcortical white matter), 2 h after single oral 7.3 mg/kg, vs untreated controls) is “not observed”; in test [2] (WT minipigs, optic nerve, 2 h after single oral 7.3 mg/kg, vs untreated controls) it was “not observed”. The “mean inhibition of p-ERK in skin” value in test [2] (all minipigs (WT and NF1), 2 h after single oral 7.3 mg/kg, 7.3 mg/kg) was 94%. The “p-ERK level in skin after selumetinib” value in test [2] (all minipigs, single oral 7.3 mg/kg, 2 h, compared to untreated minipigs) is “nearly undetectable levels”. For the same molecule, the DUSP6 transcript expression entry in test [3] is reported as “downregulated”. The FOS transcript expression result in test [3] was “downregulated”.
